Results: patent publication US20040234463A1, “Antimicrobial solution for both tropical and oral use” (Innovative Healthcare Products, Inc., priority 2002, published 2004)

How the values were obtained:
Experiment in all cases: Titration of zones of inhibition of growth
Assay type in all cases: cell-based
Set-up in all cases: key: NI: No inhibition detected
[1] = test system: Candida albicans
Experimental: (§1) The present invention was tested against a commercially available denture cleanser and a 3% solution of H2O2 to test its effectiveness to inhibit growth of ten various target microorganisms commonly found in the human mouth. Included among the microorganisms were candida albicans, staphylococcus aureus, streptococcus sanguia, and fusobacterium nucleatum. Three samples of each microorganism were prepared for introduction of one of the various treatments—either, the present invention, a commercially-available denture cleanser, or a 3% solution of H2O2. The table blow partailly summarizes the results in terms of the titration of zones (in millimeters) of inhibition of growth.

[2] = test system: Fusobacterium nucleatum
Experimental: as §1

[3] = test system: Staphylococcus aureus
Experimental: as §1

[4] = test system: Streptococcus sanguia
Experimental: as §1

`OO` [H2O2] was tested, and the “zone of inhibition of growth” value ([1]; dilution 1/16) was “NI”, the “zone of inhibition of growth” value ([1]; dilution 1/32) was “NI” and the “zone of inhibition of growth” value ([1]; dilution 1/64) was “NI”. The “zone of inhibition of growth” value ([1]; dilution 1/128) was “NI”, the “zone of inhibition of growth” value ([1]; dilution St.) was 5.5 millimeters and the “zone of inhibition of growth” value ([1]; dilution ¼) was “NI”. For the same compound, the “zone of inhibition of growth” value ([1]; dilution ½) was 5.0 millimeters, the “zone of inhibition of growth” value ([1]; dilution ⅛) was “NI” and the “zone of inhibition of growth” value ([2]; dilution 1/16) was “NI”. For the same compound, the “zone of inhibition of growth” value ([2]; dilution 1/32) was “NI”, the “zone of inhibition of growth” value ([2]; dilution 1/64) was “NI” and the “zone of inhibition of growth” value ([2]; dilution 1/128) was “NI”. The “zone of inhibition of growth” value ([2]; dilution St.) was 17.0 millimeters, the “zone of inhibition of growth” value ([2]; dilution ¼) was 7.0 millimeters and the “zone of inhibition of growth” value ([2]; dilution ½) was 13.0 millimeters. For the same compound, the “zone of inhibition of growth” value ([2]; dilution ⅛) was 6.0 millimeters, the “zone of inhibition of growth” value ([3]; dilution 1/16) was “NI” and the “zone of inhibition of growth” value ([3]; dilution 1/32) was “NI”. For the same compound, the “zone of inhibition of growth” value ([3]; dilution 1/64) was “NI”, the “zone of inhibition of growth” value ([3]; dilution 1/128) was “NI” and the “zone of inhibition of growth” value ([3]; dilution St.) was 10.0 millimeters. For the same compound, the “zone of inhibition of growth” value ([3]; dilution ¼) was “NI”, the “zone of inhibition of growth” value ([3]; dilution ½) was 5.0 millimeters and the “zone of inhibition of growth” value ([3]; dilution ⅛) was “NI”. For the same compound, the “zone of inhibition of growth” value ([4]; dilution 1/16) was “NI”, the “zone of inhibition of growth” value ([4]; dilution 1/32) was “NI” and the “zone of inhibition of growth” value ([4]; dilution 1/64) was “NI”. The “zone of inhibition of growth” value ([4]; dilution 1/128) was “NI”, the “zone of inhibition of growth” value ([4]; dilution St.) was 10.0 millimeters and the “zone of inhibition of growth” value ([4]; dilution ¼) was “NI”. The “zone of inhibition of growth” value ([4]; dilution ½) was 6.5 millimeters and the “zone of inhibition of growth” value ([4]; dilution ⅛) was “NI”.
